± gives the expanded uncertainty stated by the source.
Conditions: 298.15 K; Crystal; Vacuum Sublimation Drop (Calvet Microcalorimeter)

molar enthalpy of sublimation: 104 ± 4 kJ/mol
Compound: c1ccc2c(c1)CCc1ccccc1C2 [1,2:4,5-dibenzocycloheptane]

— the NIST ThermoML archive (doi:10.1016/j.jct.2010.10.009)
